Experimental data published in US20230301958A1, “SATRAPLATIN FOR USE IN THE TREATMENT OF LYMPHOID NEOPLASMS” (priority 2020, published 2023).

Legend:
[1] = tested on: OCI Ly-3 cell line; test: CellTiter-Glo luminescent cell viability assay, OCI-LY-3; assay type: cell-based, human; conditions: PCNSL-like DLBCL cell line, FIG. 3K, 72h
Protocol: (§1) Hereto, the 50% inhibitory concentration (IC50) was determined in said cancer cell lines using the CellTiter-Glo® (CTG) luminescent cell viability assay after a 72h incubation with different concentrations of the two drugs ranging from 10 nM to 100 uM.
(§2) All cell lines were cultured in the media supplemented with 10-15% FBS, at a temperature of 37° C., 5% CO2 and 95% humidity. Cell viability was measured using the CTG Luminescent Cell Viability Assay by standard procedures. Satraplatin was purchased from MedChemExpress (China) and cisplatin from Qilu Pharm (China), respectively. 1 mM solution of both drugs were established for storage at -20° C. as previously described (Wosikowski K et al., Cancer Chemother Pharmacol (2007) 60(4):589-600).
(§3) Cells were harvested during the logarithmic growth period and count cell number using Count-star. Cell concentrations were adjusted to 4.44×10^4 cells/mL with the respective culture medium. […] Luminescence was recorded using EnVision Multi Label Reader.
(§4) In order to calculate absolute IC50 (EC50), a dose-response curve was fitted using a nonlinear regression model with a sigmoidal dose response. […] The absolute IC50 (EC50) was calculated according to the dose-response curve generated by GraphPad Prism 5.0. The standard deviation was calculated for each dose level and each cell line and is indicated by the bars.

[2] = tested on: OCI-LY7 cells; test: CellTiter-Glo luminescent cell viability assay, OCI-LY-7; assay type: cell-based, human; conditions: DLBCL cell line, 72h
Protocol: as §1, §2, §3, §4

[3] = tested on: DLBCL cell lines; test: CellTiter-Glo luminescent cell viability assay, DLBCL cell lines; assay type: cell-based, human; conditions: 72h incubation, CTG assay
Protocol: as §1, §2, §3, §4

[4] = tested on: B-cell lymphoma cell lines (Burkitt lymphoma, mantle cell lymphoma, DLBCL); test: CellTiter-Glo luminescent cell viability assay, B-cell lymphoma cell lines; assay type: cell-based, human; conditions: mantle cell lymphoma and DLBCL cell lines, FIGS. 1-3
Protocol: as §1, §2, §3, §4

[5] = tested on: T-cell lymphoma cell lines; test: CellTiter-Glo luminescent cell viability assay, T-cell lymphoma cell lines; assay type: cell-based, human; conditions: particularly ALK+ ALCL, FIG. 4A-4D
Protocol: as §1, §2, §3, §4

[6] = tested on: multiple myeloma cell lines; test: CellTiter-Glo luminescent cell viability assay, multiple myeloma cell lines; assay type: cell-based, human; conditions: FIG. 5
Protocol: as §1, §2, §3, §4

[7] = tested on: lymphoma and myeloma cell lines; test: CellTiter-Glo luminescent cell viability assay, panel of 41 lymphoma and multiple myeloma cell lines; assay type: cell-based, human
Protocol: as §1, §2
Cells were harvested during the logarithmic growth period and count cell number using Count-star. Cell concentrations were adjusted to 4.44×10^4 cells/mL with the respective culture medium. Then, 90 µL cell suspensions were added in triplicate to two 96-well plates (plates A and B) with the final cell density of 4×10^3 cells/well. […] For that purpose, plates were equilibrated at RT for approximately 30 min. Then, 50 µL CTG reagent was added to each well. The content was mixed for 5 min on an orbital shaker to induce cell lysis and the plate incubated at RT for 20 min to stabilize luminescent signal. Luminescence was recorded using EnVision Multi Label Reader.
In order to calculate absolute IC50 (EC50), a dose-response curve was fitted using a nonlinear regression model with a sigmoidal dose response. The formula for calculating surviving rate is: The surviving rate (%) = (LumTest article-LumMedium control)/(LumNon-treated-LumMedium control)×100%. The absolute IC50 (EC50) was calculated according to the dose-response curve generated by GraphPad Prism 5.0. The standard deviation was calculated for each dose level and each cell line and is indicated by the bars.

[8] = tested on: metastatic prostate cancer; conditions: SPARC trial, patients receiving satraplatin; cited from earlier work
[9] = in vivo, po; cited from earlier work
[10] = in vivo; cited from earlier work

SMILES	killing of OCI Ly-3 [1]	killing of OCI-LY7 cells compared to cisplatin [2]	IC50 values in DLBCL cell lines [3]	inducing cell death, compared to cisplatin [4]	inducing cell death, compared to cisplatin [5]	inducing cell death, compared to cisplatin [6]	relative sensitivity of certain cell lines ([7]; DOHH2, OCI Ly19, SUDHL5, OCI Ly3, Toledo, Z138, Daudi, SUDHL1, HuT78 cell lines, FIG. 6)	IC 50 values, killing of lymphoma cell lines ([7]; FIGS. 1-6, 72h incubation)	sensitivity of all cell lines described ([7]; all tested cell lines)	patients showing a relevant PSA-response (decline of more than 50%) [8]	nephro- or neurotoxicity in clinical trials [9]	CNS penetration [10]
CC(=O)[O][Pt]([NH2])([Cl])([Cl])([NH]C1CCCCC1)[O]C(C)=O [satraplatin, bis (acetato) ammine dichloro (cyclohexylamine) platinum (IV)]	very effectively killed	significantly superior	low micromolar or even sub-molar	at least equivalent to cisplatin	at least equivalent to cisplatin	at least equivalent to cisplatin	particularly sensitive	low micromolar concentrations or even lower	sensitive	25%	no or not relevant nephro- or neurotoxicity	clinically proven meaningful CNS penetration
N.N.[Cl][Pt][Cl] [cisplatin]	–	–	low micromolar or even sub-molar	–	–	–	–	–	–	–	–	–
